Source: ChEMBL document CHEMBL5104103 (J Med Chem, 2022)

Experiments:
[1] = target: Sodium-dependent dopamine transporter (Homo sapiens) (UniProt Q01959); test: Displacement of [3H]BTCP from recombinant human dopamine transporter DAT at 10 uM incubated for 120 mins by radiometric scintillation assay relative to control
[2] = target: Tyrosine-protein kinase Blk (Homo sapiens, UniProt P51451); test: Displacement of competitive tracer from BLK (unknown origin) assessed as target occupancy at […] preincubated for 15 mins measured for 24 hrs relative to control; conditions: dose 1.5 µM
Chain of Tyrosine-protein kinase Blk (P51451 2-505 limits assumed): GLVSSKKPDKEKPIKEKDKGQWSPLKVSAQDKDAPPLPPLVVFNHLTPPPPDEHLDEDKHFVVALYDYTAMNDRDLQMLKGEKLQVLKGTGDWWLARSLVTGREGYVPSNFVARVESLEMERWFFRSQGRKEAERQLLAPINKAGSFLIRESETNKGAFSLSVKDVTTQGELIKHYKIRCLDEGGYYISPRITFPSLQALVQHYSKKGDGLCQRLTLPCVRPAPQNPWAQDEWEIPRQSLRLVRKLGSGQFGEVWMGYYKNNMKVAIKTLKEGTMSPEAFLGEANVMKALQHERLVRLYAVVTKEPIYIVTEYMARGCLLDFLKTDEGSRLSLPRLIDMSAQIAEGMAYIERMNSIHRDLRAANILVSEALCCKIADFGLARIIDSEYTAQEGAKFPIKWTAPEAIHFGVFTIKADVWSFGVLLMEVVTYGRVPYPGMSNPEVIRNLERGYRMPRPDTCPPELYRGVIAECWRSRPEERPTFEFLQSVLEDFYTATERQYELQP

[3] = target: T1, Tyrosine-protein kinase TXK (Homo sapiens) (UniProt P42681); test: Displacement of competitive tracer from RLK (unknown origin) assessed as target occupancy at […] preincubated for 15 mins measured for 24 hrs relative to control; conditions: dose 1.5 µM
T1 sequence (whole entry): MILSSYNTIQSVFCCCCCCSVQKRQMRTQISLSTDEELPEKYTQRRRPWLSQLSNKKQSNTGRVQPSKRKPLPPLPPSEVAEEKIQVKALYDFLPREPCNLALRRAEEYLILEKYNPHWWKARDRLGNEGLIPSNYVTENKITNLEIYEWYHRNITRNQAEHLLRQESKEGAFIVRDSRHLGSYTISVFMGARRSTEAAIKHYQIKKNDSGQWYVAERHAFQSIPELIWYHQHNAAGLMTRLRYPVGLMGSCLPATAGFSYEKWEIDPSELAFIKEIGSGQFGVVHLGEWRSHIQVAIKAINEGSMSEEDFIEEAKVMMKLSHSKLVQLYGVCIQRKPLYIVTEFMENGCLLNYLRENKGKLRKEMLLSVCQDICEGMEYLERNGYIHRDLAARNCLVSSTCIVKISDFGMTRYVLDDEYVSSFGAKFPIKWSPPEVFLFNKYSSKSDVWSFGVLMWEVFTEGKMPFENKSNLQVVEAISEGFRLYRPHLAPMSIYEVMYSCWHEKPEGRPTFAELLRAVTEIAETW

[4] = target: Adenosine receptor A3 (Homo sapiens) (UniProt P0DMS8); test: Displacement of [125I]AB-MECA from recombinant human Adenosine receptor A3 at 10 uM incubated for 120 mins by radiometric scintillation assay relative to control
Chain of Adenosine receptor A3 (Homo sapiens) (P0DMS8 whole entry): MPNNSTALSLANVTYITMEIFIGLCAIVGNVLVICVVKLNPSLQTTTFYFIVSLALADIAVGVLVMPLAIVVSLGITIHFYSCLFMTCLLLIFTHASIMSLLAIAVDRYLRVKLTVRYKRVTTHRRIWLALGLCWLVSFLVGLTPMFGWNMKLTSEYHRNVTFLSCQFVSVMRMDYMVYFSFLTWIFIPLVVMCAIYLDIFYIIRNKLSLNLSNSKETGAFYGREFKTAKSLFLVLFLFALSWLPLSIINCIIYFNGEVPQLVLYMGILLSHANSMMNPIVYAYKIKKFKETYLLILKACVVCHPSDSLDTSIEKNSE

[5] = target: T2, Tyrosine-protein kinase Tec (Homo sapiens) (UniProt P42680); test: Displacement of competitive tracer from TEC (unknown origin) assessed as target occupancy at […] preincubated for 15 mins measured for 24 hrs relative to control; conditions: dose 1.5 µM
T2 sequence (whole entry): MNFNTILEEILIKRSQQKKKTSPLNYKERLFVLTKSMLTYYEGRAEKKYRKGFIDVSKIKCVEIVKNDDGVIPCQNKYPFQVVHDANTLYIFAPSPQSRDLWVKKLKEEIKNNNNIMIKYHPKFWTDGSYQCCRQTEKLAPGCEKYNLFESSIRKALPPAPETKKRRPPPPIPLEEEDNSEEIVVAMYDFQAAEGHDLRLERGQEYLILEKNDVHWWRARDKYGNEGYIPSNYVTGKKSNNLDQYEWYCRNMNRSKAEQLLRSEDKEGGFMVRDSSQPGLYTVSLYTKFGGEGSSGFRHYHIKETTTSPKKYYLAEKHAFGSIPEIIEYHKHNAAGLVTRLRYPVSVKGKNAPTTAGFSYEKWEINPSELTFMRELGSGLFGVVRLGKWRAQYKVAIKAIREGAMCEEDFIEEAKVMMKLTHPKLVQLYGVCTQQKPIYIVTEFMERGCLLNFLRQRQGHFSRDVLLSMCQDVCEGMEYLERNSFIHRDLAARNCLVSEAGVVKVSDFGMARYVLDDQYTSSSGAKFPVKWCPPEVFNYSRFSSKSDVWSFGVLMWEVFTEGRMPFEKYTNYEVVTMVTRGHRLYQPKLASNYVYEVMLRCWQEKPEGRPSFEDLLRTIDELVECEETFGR

Chain of Sodium-dependent dopamine transporter (Homo sapiens) (Q01959 whole entry): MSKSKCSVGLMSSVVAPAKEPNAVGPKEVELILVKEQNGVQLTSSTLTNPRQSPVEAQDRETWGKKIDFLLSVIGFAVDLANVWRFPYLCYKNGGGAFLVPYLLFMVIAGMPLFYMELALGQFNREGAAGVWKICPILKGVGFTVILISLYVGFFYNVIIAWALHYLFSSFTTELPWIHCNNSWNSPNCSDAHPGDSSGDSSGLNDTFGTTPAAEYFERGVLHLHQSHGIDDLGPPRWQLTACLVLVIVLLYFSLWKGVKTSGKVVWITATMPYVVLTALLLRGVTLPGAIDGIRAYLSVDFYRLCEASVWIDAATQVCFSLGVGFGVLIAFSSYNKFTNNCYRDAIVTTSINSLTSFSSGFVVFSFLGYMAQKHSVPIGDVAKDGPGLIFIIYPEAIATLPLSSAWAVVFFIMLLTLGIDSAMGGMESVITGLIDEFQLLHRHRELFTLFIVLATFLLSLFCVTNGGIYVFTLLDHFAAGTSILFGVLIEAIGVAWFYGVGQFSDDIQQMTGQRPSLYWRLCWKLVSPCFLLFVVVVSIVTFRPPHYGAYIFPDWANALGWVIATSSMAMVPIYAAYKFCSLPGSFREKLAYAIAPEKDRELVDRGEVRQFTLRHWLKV

inhibition [1]: > 50%
Activity [2]: 1%
Activity [3]: 85%
inhibition [4]: > 50%
Activity [5]: 76%
SMILES: CC(C)(C)/C=C(\C#N)C(=O)N1CCC[C@@H](n2nc(-c3ccc(Oc4ccccc4)cc3F)c3c(N)ncnc32)C1 [ATUZABRUTINIB]
